Values of other authors as cited in patent US9616098B2, “Formulations of vancomycin” (SCIDOSE, LLC, priority 2013, dated 2017).

Which “stable in water after reconstitution” value does the source give for CN[C@H](CC(C)C)C(=O)N[C@H]1C(=O)N[C@@H](CC(N)=O)C(=O)N[C@H]2C(=O)N[C@H]3C(=O)N[C@H](C(=O)N[C@H](C(=O)O)c4cc(O)cc(O)c4-c4cc3ccc4O)[C@H](O)c3ccc(c(Cl)c3)Oc3cc2cc(c3O[C@@H]2O[C@H](CO)[C@@H](O)[C@H](O)[C@H]2O[C@H]2C[C@](C)(N)[C@H](O)[C@H](C)O2)Oc2ccc(cc2Cl)[C@H]1O [Vancomycin] here?
Its value is “approximately 24 hours”.
